Laboratory results published in ChEMBL document CHEMBL1126639, “Centrally acting serotonergic and dopaminergic agents. 2. Synthesis and structure-activity relationships of 2,3,3a,4,9,9a-hexahydro-1H-benz[f]indole derivatives” (J Med Chem, 1993).
“And” between values parts separate entries of the source, which are not always exact repeats. Equal values may be shown once. The source made the active and inactive calls. No cut-off for these calls is given here.

Experiments:
D(2) dopamine receptor [1] = biological target: T1, D(2) dopamine receptor (Rattus norvegicus, UniProt P61169); assay: Inhibitory concentration against [3H]raclopride-labeled dopamine receptor D2 in rat striatum; assay type: tissue-based
Mus musculus [2] = assay: Time of effect in the face-to-face behavioral assay in the mouse when a dose of 3.4 micro mol/kg is administered perorally; assay type: functional
Mus musculus [3] = assay: Maximum decrease in temperature when compound is administered subcutaneously; assay type: functional
Mus musculus [4] = assay: Time of effect in the isolation-induced aggression behavioral assay in the mouse when a dose of 10 micro mol/kg is administered perorally; assay type: functional
D(2) dopamine receptor [5] = biological target: T1, D(2) dopamine receptor; assay: Compound was evaluated for the binding affinity against [3H]raclopride-labeled dopamine receptor D2 in rat striatum; assay type: tissue-based
Mus musculus [6] = assay: Time of effect in the isolation-induced aggression behavioral assay in the mouse when a dose of 3.4 micro mol/kg is administered perorally; assay type: functional
Mus musculus [7] = assay: Time of effect in the face-to-face behavioral assay in the mouse when a dose of 0.3 micro mol/kg is administered perorally; assay type: functional
Mus musculus [8] = assay: Effective dose on hypothermia in mouse when administered through peroral route; assay type: functional; conditions: Mus musculus, po; read-out: ED50
Mus musculus [9] = assay: Time of effect in the face-to-face behavioral assay in the mouse when a dose of 34 micro mol/kg is administered perorally; assay type: functional
Mus musculus [10] = assay: Effective dose on hypothermia in mouse when administered subcutaneously; assay type: functional; conditions: Mus musculus, sc; read-out: ED50
Mus musculus [11] = assay: Maximum decrease in temperature when compound is administered through peroral route; assay type: functional
Mus musculus [12] = assay: Time of effect in the face-to-face behavioral assay in the mouse when a dose of 0.0 micro mol/kg is administered perorally; assay type: functional
Rattus norvegicus [13] = assay: (§1) Inhibition of firing rates of dopaminergic neurons in the substantia nigra pars compacta by intravenous injection in rats; assay type: functional
Mus musculus [14] = assay: Antagonism of apomorphine in reserpinized mice when a dose of 3.8 micro mol/kg is administered intraperitoneally; assay type: functional
Mus musculus [15] = assay: Antagonism of apomorphine in reserpinized mice when a dose of 0.4 micro mol/kg is administered intraperitoneally; assay type: functional
D(2) dopamine receptor [16] = biological target: T2, D(2) dopamine receptor (Homo sapiens, UniProt P14416); assay: Binding affinity against [3H]U-86,170-labeled dopamine receptor D2 in cloned CHO cells; assay type: cell-based
Mus musculus [17] = assay: Ability to stimulate dopaminergic systems by effect on locomotor activity in reserpinized mice when a dose of 3.8 micro mol/kg is administered intraperitoneally; assay type: functional
Mus musculus [18] = assay: Antagonism of apomorphine for 10-20 minutes in reserpinized mice when a dose of 38 micro mol/kg is administered intraperitoneally; assay type: functional
Mus musculus [19] = assay: Antagonism of apomorphine for 10-20 minutes in reserpinized mice when a dose of 3.8 micro mol/kg is administered intraperitoneally; assay type: functional
Mus musculus [20] = assay: Ability to stimulate dopaminergic systems by effect on locomotor activity in reserpinized mice when a dose of 38 micro mol/kg is administered intraperitoneally; assay type: functional
Mus musculus [21] = assay: Antagonism of apomorphine in reserpinized mice when a dose of 38 micro mol/kg is administered intraperitoneally; assay type: functional
Mus musculus [22] = assay: Antagonism of apomorphine for 10-20 minutes in reserpinized mice when a dose of 0.4 micro mol/kg is administered intraperitoneally; assay type: functional
Mus musculus [23] = assay: Antagonism of apomorphine for 0-10 minutes in reserpinized mice when a dose of 3.8 micro mol/kg is administered intraperitoneally; assay type: functional
Rattus norvegicus [24] = assay: Inhibition of firing rates of serotonergic neurons in the dorsal raphe nucleus by intravenous injection in rats; assay type: functional; conditions: Rattus norvegicus, Dorsal raphe nucleus, iv; read-out: ED50
Mus musculus [25] = assay: Antagonism of apomorphine for 0-10 minutes in reserpinized mice when a dose of 0.4 micro mol/kg is administered intraperitoneally; assay type: functional
Mus musculus [26] = assay: Antagonism of apomorphine for 0-10 minutes in reserpinized mice when a dose of 38 micro mol/kg is administered intraperitoneally; assay type: functional
D(2) dopamine receptor [27] = biological target: T1, D(2) dopamine receptor; assay: Binding affinity for [3H]raclopride-labeled dopamine receptor D2 in rat striatum; assay type: tissue-based
Mus musculus [28] = assay: Ability to stimulate dopaminergic systems by effect on locomotor activity in reserpinized mice when a dose of 0.4 micro mol/kg is administered intraperitoneally; assay type: functional
Mus musculus [29] = assay: Ability to stimulate dopaminergic systems by effect on locomotor activity in reserpinized mice when a dose of 43 micro mol/kg is administered intraperitoneally; assay type: functional
Mus musculus [30] = assay: Antagonism of apomorphine for 0-10 minutes in reserpinized mice when a dose of 4.3 micro mol/kg is administered intraperitoneally; assay type: functional
Mus musculus [31] = assay: Antagonism of apomorphine in reserpinized mice when a dose of 43 micro mol/kg is administered intraperitoneally; assay type: functional
Rattus norvegicus [32] = assay: Effect on the synthesis rates of dopamine (DOPA accumulation) in the rat ventral limbic brain region at 43.2 uM/kg.; assay type: functional, Limbic system
Mus musculus [33] = assay: Ability to stimulate dopaminergic systems by effect on locomotor activity in reserpinized mice when a dose of 4.3 micro mol/kg is administered intraperitoneally; assay type: functional
Mus musculus [34] = assay: Antagonism of apomorphine for 10-20 minutes in reserpinized mice when a dose of 43 micro mol/kg is administered intraperitoneally; assay type: functional
Mus musculus [35] = assay: Antagonism of apomorphine in reserpinized mice when a dose of 4.3 micro mol/kg is administered intraperitoneally; assay type: functional
Mus musculus [36] = assay: Antagonism of apomorphine for 0-10 minutes in reserpinized mice when a dose of 43 micro mol/kg is administered intraperitoneally; assay type: functional
Rattus norvegicus [37] = assay: Effect on the synthesis rates of serotonin (5-HTP accumulation) in the rat ventral limbic brain region 43.2 umol/kg.; assay type: functional, Limbic system
Mus musculus [38] = assay: Antagonism of apomorphine for 10-20 minutes in reserpinized mice when a dose of 4.3 micro mol/kg is administered intraperitoneally; assay type: functional
Mus musculus [39] = assay: Antagonism of apomorphine in reserpinized mice when a dose of 36 micro mol/kg is administered intraperitoneally; assay type: functional
Mus musculus [40] = assay: Antagonism of apomorphine in reserpinized mice when a dose of 3.6 micro mol/kg is administered intraperitoneally; assay type: functional
Mus musculus [41] = assay: Antagonism of apomorphine for 0-10 minutes in reserpinized mice when a dose of 36 micro mol/kg is administered intraperitoneally; assay type: functional
Mus musculus [42] = assay: Antagonism of apomorphine for 10-20 minutes in reserpinized mice when a dose of 36 micro mol/kg is administered intraperitoneally; assay type: functional
D(2) dopamine receptor [43] = biological target: T2, D(2) dopamine receptor; assay: Intrinsic activity from GTP shift using CHO cell membranes expressing dopamine receptor D2; assay type: functional
Mus musculus [44] = assay: Ability to stimulate dopaminergic systems by effect on locomotor activity in reserpinized mice when a dose of 36 micro mol/kg is administered intraperitoneally; assay type: functional
Mus musculus [45] = assay: Ability to stimulate dopaminergic systems by effect on locomotor activity in reserpinized mice when a dose of 3.6 micro mol/kg is administered intraperitoneally; assay type: functional
Mus musculus [46] = assay: Antagonism of apomorphine for 0-10 minutes in reserpinized mice when a dose of 3.6 micro mol/kg is administered intraperitoneally; assay type: functional
Mus musculus [47] = assay: Antagonism of apomorphine for 10-20 minutes in reserpinized mice when a dose of 3.6 micro mol/kg is administered intraperitoneally; assay type: functional
[48] = biological target: Sodium-dependent dopamine transporter (Rattus norvegicus) (UniProt P23977); assay: as §1; assay type: functional, tissue-based
Felis catus = assay: Effective dose at which the sympathetic nerve activity (SND) has been reduced to 50% of the pretreatment value in anesthetized cat; In active; assay type: functional, organism-based

T1 sequence (P61169 whole entry): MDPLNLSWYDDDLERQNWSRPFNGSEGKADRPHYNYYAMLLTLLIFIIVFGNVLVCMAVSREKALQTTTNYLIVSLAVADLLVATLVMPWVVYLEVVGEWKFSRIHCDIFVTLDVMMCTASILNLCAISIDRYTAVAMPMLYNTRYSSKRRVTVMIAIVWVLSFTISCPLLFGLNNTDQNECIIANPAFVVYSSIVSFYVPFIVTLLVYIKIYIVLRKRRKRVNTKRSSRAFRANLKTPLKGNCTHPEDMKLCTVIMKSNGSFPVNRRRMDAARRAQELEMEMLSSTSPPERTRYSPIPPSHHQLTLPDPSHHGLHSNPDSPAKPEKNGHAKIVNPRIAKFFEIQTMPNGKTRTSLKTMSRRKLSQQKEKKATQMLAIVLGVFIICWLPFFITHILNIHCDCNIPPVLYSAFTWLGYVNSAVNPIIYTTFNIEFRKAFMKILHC
T2 sequence (P14416 whole entry): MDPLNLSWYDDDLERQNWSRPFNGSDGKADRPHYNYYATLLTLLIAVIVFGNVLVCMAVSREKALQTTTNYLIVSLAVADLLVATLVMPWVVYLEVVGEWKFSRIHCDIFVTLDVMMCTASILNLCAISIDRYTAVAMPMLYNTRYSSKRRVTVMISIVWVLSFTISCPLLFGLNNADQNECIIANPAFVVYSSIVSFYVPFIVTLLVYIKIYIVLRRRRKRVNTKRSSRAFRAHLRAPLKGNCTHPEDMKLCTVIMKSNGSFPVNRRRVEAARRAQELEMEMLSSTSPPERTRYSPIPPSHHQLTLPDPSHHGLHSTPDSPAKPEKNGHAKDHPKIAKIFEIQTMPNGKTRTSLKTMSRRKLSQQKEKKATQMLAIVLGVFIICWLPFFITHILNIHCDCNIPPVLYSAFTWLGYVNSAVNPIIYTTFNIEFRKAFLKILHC
Sequence of Sodium-dependent dopamine transporter (Rattus norvegicus) (P23977 whole entry): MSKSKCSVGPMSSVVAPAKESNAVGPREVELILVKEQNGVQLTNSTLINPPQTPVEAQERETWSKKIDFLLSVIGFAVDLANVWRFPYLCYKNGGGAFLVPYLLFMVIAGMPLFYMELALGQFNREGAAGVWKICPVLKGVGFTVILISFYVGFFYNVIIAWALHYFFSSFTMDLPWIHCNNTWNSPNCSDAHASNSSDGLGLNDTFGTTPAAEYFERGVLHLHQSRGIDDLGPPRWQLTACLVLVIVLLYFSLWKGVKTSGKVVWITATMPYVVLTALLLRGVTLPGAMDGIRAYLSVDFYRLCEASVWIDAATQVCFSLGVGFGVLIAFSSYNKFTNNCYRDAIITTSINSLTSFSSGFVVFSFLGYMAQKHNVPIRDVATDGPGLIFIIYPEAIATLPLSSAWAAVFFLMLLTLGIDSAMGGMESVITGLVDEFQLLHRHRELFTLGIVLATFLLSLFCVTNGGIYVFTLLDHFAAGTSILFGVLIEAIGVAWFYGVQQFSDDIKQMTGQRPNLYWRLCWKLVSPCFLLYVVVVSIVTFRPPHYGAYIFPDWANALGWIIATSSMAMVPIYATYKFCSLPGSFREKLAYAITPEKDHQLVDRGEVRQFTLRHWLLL

CCCN1[C@H](C)C[C@@H]2Cc3cccc(OC)c3C[C@@H]21 (racemic)
IC50 (D(2) dopamine receptor [1]): > 1000 nM

COc1cccc2c1C[C@H]1CCN(CC3CC3)[C@@H]1C2 (racemic)
Time (Mus musculus [2]): 1.6 s
Max temperature decrease (Mus musculus [3]): 7
Time (Mus musculus [4]): 177 s
Ki (D(2) dopamine receptor [5]): > 1000 nM
Time (Mus musculus [6]): 58 s
Time (Mus musculus [7]): 0.9 s
ED50 (Mus musculus [8]): 25 µmol/kg
Time (Mus musculus [9]): 1.5 s
ED50 (Mus musculus [10]): 19 µmol/kg
Max temperature decrease (Mus musculus [11]): 6.2
Time (Mus musculus [12]): 1 s

C=CCN1CC[C@@H]2Cc3c(O)cccc3C[C@H]21 (racemic)
ED50 (Rattus norvegicus [13]): 0.007 µmol/kg
Locomotor activity (Mus musculus [14]): 133
Locomotor activity (Mus musculus [15]): 108
Ki (D(2) dopamine receptor [16]): 235 nM
Locomotor activity (Mus musculus [17]): 1409
Locomotor activity (Mus musculus [18]): 46
Locomotor activity (Mus musculus [19]): 54
Locomotor activity (Mus musculus [20]): 1783
Locomotor activity (Mus musculus [21]): 123
Locomotor activity (Mus musculus [22]): 77
Locomotor activity (Mus musculus [23]): 40
ED50 (Rattus norvegicus [24]): 0.35 µmol/kg
Locomotor activity (Mus musculus [25]): 61
Locomotor activity (Mus musculus [26]): 55
Ki (D(2) dopamine receptor [27]): 47 nM
Locomotor activity (Mus musculus [28]): 450

C=CCN1CC[C@@H]2Cc3cccc(OC)c3C[C@H]21 (racemic)
IC50 (D(2) dopamine receptor [1]): > 1000 nM

CCCN1CC[C@@H]2Cc3c(O)cccc3C[C@H]21 (racemic)
ED50 (Rattus norvegicus [13]): 0.003 µmol/kg
Locomotor activity (Mus musculus [29]): 1539
Locomotor activity (Mus musculus [15]): 98
Ki (D(2) dopamine receptor [16]): 2.4 nM
Locomotor activity (Mus musculus [30]): 46
Locomotor activity (Mus musculus [31]): 114
Control (Rattus norvegicus [32]): -47%
Locomotor activity (Mus musculus [22]): 71
Locomotor activity (Mus musculus [33]): 912
Locomotor activity (Mus musculus [34]): 23
Locomotor activity (Mus musculus [25]): 41
Locomotor activity (Mus musculus [35]): 69
Ki (D(2) dopamine receptor [27]): 17 nM
Locomotor activity (Mus musculus [36]): 29
Locomotor activity (Mus musculus [28]): 423
Control (Rattus norvegicus [37]): -4%
Locomotor activity (Mus musculus [38]): 38

Oc1cccc2c1C[C@H]1CCN(CC3CC3)[C@@H]1C2 (racemic)
Locomotor activity (Mus musculus [39]): 117
Locomotor activity (Mus musculus [40]): 163
Locomotor activity (Mus musculus [15]): 129
Locomotor activity (Mus musculus [41]): 25
Locomotor activity (Mus musculus [42]): 49
Intrinsic activity (D(2) dopamine receptor [43]): 73%
Locomotor activity (Mus musculus [44]): 1033
Locomotor activity (Mus musculus [22]): 88
Locomotor activity (Mus musculus [45]): 539
Locomotor activity (Mus musculus [25]): 83
Locomotor activity (Mus musculus [46]): 31
Ki (D(2) dopamine receptor [27]): 118 nM
Locomotor activity (Mus musculus [28]): 1
Locomotor activity (Mus musculus [47]): 60

CCCN1CC[C@@H]2Cc3c(cccc3OC)C[C@H]21
Locomotor activity (Mus musculus [39]): 14
Locomotor activity (Mus musculus [40]): 72
Locomotor activity (Mus musculus [15]): 86
Locomotor activity (Mus musculus [41]): 21
Locomotor activity (Mus musculus [42]): 20
IC50 (D(2) dopamine receptor [1]): > 1000 nM
Ki (D(2) dopamine receptor [16]): 75 nM
Locomotor activity (Mus musculus [44]): 308
Locomotor activity (Mus musculus [22]): 30
Locomotor activity (Mus musculus [45]): 851
Locomotor activity (Mus musculus [25]): 20
Locomotor activity (Mus musculus [46]): 18
Locomotor activity (Mus musculus [28]): 581
Locomotor activity (Mus musculus [47]): 12

C=CCN1CC[C@@H]2Cc3c(cccc3OC)C[C@H]21 (racemic)
ED50 [48]: > 10.7 µmol/kg and 6.8 µmol/kg
ED50 (Felis catus): inactive

COc1cccc2c1C[C@H]1CCN(Cc3ccccc3)[C@@H]1C2 (racemic)
Ki (D(2) dopamine receptor [27]): > 10000 nM

COc1cccc2c1C[C@H]1CCN(CC3CC3)[C@H]1C2 (racemic)
Ki (D(2) dopamine receptor [27]): 748 nM

COc1cccc2c1C[C@H]1CCN(Cc3ccccc3)[C@H]1C2 (racemic)
Ki (D(2) dopamine receptor [27]): 465 nM
